Laboratory results: ChEMBL document CHEMBL1201862, “PubChem BioAssay data set” (2004)
Activity calls are given as the source filed them.

Columns and labels:
Cannabinoid receptor 2 [1] = target: T1, Cannabinoid receptor 2 (Homo sapiens, UniProt P34972); assay: SAR analysis of antagonists of the Cannabinoid Receptor 2 using an Image-Based Assay - Set 2. [Related pubchem assays (depositor defined):AID1961, AID1965]; format: functional
Cannabinoid receptor 1 [2] = target: T2, Cannabinoid receptor 1 (Homo sapiens, UniProt P21554); assay: SAR analysis of antagonists of the Cannabinoid Receptor 1 using an Image-Based Assay - Set 3. [Related pubchem assays (depositor defined):AID1961, AID1965]; format: functional
[3] = target: T3, G-protein coupled receptor 35 (Homo sapiens, UniProt Q9HC97); assay: SAR analysis of Antagonists of the GPR35 Receptor using an Image-Based Assay - Set 4. [Related pubchem assays (depositor defined):[…]]; format: functional
Cannabinoid receptor 1 [4] = target: T2, Cannabinoid receptor 1; assay: SAR analysis of agonists of the Cannabinoid Receptor 1 using an Image-Based Assay - Set 3. [Related pubchem assays (depositor defined):AID1961, AID1965]; format: functional
Cannabinoid receptor 2 [5] = target: T1, Cannabinoid receptor 2; assay: SAR analysis of agonists of the Cannabinoid Receptor 2 using an Image-Based Assay - Set 2. [Related pubchem assays (depositor defined):AID1961, AID1965]; format: functional
[6] = target: T3, G-protein coupled receptor 35; assay: SAR analysis of Agonists of the GPR35 Receptor using an Image-Based Assay - Set 3. [Related pubchem assays (depositor defined):AID1961, AID1965]; format: functional
[7] = target: G-protein coupled receptor 55 (Homo sapiens, UniProt Q9Y2T6); assay: SAR analysis of selective Agonists of GPR55 using an Image-Based Assay - Set 2. [Related pubchem assays (depositor defined):AID1961, AID1965]; format: functional
T-cell = assay: inhibitors of CD8+ T cell–vesicle binding, dose response, mouse 2C CD8+ T cells, flow cytometry (AID 485284); format: functional
[8] = Luminescence Cell-Based Dose Response HTS to Identify Activators of Luciferase Translation or Activity in H4 […] Cells. [Related pubchem assays: 1829 (Project Summary), 1814 (Primary HTS)]; format: functional
[9] = Luminescence Cell-Based Dose Confirmation HTS to Identify Activators of 5'UTR Stem-Loop Driven Alpha-Synuclein mRNA Translation in H4 Neuroglioblastoma Cells. [Related pubchem assays: 1829 (Project Summary), 1814 (Primary HTS)]; format: functional
[10] = target: Sphingosine 1-phosphate receptor 4 (Homo sapiens, UniProt O95977); assay: Late-stage fluorescence dose response cell-based assay to identify agonists of the Sphingosine 1-Phosphate Receptor 4 (S1P4): purchased compounds EC50. [Related pubchem assays (depositor defined):AID1509, AID1523, AID1563, AID1686, AID1701, AID1801]; format: functional
[11] = target: T4, Kappa-type opioid receptor (Homo sapiens, UniProt P41145); assay: SAR analysis of small molecule antagonists of the kappa opioid receptor via a luminescent beta-arrestin assay - Set 6. [Related pubchem assays (depositor defined):AID1777, AID1778, AID1785, AID1786, AID1966, AID2133, AID2136, AID2285]; format: functional
Mu-type opioid receptor [12] = target: T5, Mu-type opioid receptor (Homo sapiens, UniProt P35372); assay: SAR Analysis of Antagonists of the MOR Receptor using an Image-Based Assay - Set 3. [Related pubchem assays (depositor defined):AID1777, AID1785, AID1786, AID1966, AID2133, AID2136, AID2284, AID2285, AID2420]; format: functional
[13] = target: T4, Kappa-type opioid receptor; assay: SAR analysis of Antagonists of the Kappa Opioid Receptor (KOR) using an Image-Based Assay - Set 4. [Related pubchem assays (depositor defined):AID1777, AID1785]; format: functional
[14] = target: T6, Delta-type opioid receptor (Homo sapiens, UniProt P41143); assay: SAR Analysis of Antagonists of the DOR Receptor using an Image-Based Assay - Set 3. [Related pubchem assays (depositor defined):AID1777, AID1785]; format: functional
[15] = target: T4, Kappa-type opioid receptor; assay: SAR analysis of small molecule antagonists of the kappa opioid receptor via a luminescent beta-arrestin assay - Set 4. [Related pubchem assays (depositor defined):AID1777, AID1778, AID1785, AID1786, AID1966, AID2133, AID2136, AID2285]; format: functional
[16] = target: Melanin-concentrating hormone receptor 1 (Homo sapiens, UniProt Q99705); assay: Late-stage fluorescence-based counterscreen for antagonists of the G-protein coupled receptor 7 (GPR7): cell-based dose response assay to identify antagonists of the melanin-concentrating hormone receptor 1 (MCHR1). [Related pubchem assays (depositor defined):AID1861, AID1880, AID1952, AID2148, AID2251, AID2257, AID485339]; format: functional;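 further: stimulated with 30 nM MCH peptide agonist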
[17] = inhibitors of firefly luciferase expression or activity, dose response, H4 neuroglioma cells, luminescence (AID 1990); format: functional, cell-based
Vero [18] = assay: host cell cytotoxicity of antiviral hits, dose response, cytotoxicity control for West Nile virus antiviral project, secondary assay (AID 1650); format: functional; conditions: Chlorocebus sabaeus
Mu-type opioid receptor [19] = target: T5, Mu-type opioid receptor; assay: HTS Image-Based Screen for Agonists of the MOR Receptor. [Related pubchem assays (depositor defined):AID1777, AID1785, AID1786, AID2133]; format: functional
[20] = target: T4, Kappa-type opioid receptor; format: functional
[21] = target: T6, Delta-type opioid receptor; assay: HTS Image-Based Screen for Agonists of the DOR Receptor. [Related pubchem assays (depositor defined):AID1777, AID1786, AID2133]; format: functional
[22] = target: T6, Delta-type opioid receptor; assay: HTS Image-Based Screen for Antagonists of the DOR Receptor. [Related pubchem assays (depositor defined):AID1777, AID1785, AID1786, AID2133]; format: functional
[23] = Luminescence Cell-Based Dose Response HTS to Identify Inhibitors of 5'UTR Stem-Loop Driven Prion Protein mRNA Translation in H4 Neuroglioblastoma Cells. [Related pubchem assays: 1827 (Project Summary), 1813 (Primary HTS)]; format: functional
Beta-galactosidase [24] = target: T7, Beta-galactosidase (Escherichia coli, UniProt Q8VNN2); format: functional
[25] = target: T4, Kappa-type opioid receptor; format: functional; remark: listed apart in the source
[26] = target: E3 ubiquitin-protein ligase Mdm2/Protein Mdm4 (Homo sapiens, UniProt O15151+Q00987); assay: Mdm2-MdmX interaction inhibitors, dose response, luminescence detection (AID 504593); format: functional
[27] = inhibitors of SNCA 5'UTR-driven reporter translation, confirmation, H4 neuroglioma cells, luminescence (AID 1988); format: functional, cell-based
Vero [28] = assay: cells; format: functional; conditions: Chlorocebus sabaeus
cells [29] = format: functional, cell-based
cells [30] = format: functional, cell-based; remark: listed apart in the source
Beta-galactosidase [31] = target: T7, Beta-galactosidase; assay: beta-galactosidase enzyme inhibitors and activators, dose response, artefact control for CCR6 antagonist project, biochemical, E. coli enzyme, set 3 (AID 504712); format: functional
[32] = target: C-C chemokine receptor type 6 (Homo sapiens, UniProt P51684); assay: CCR6 receptor antagonists, dose response, cell-based, luminescent beta-arrestin readout (AID 504728); format: functional

T4 sequence (P41145 whole entry): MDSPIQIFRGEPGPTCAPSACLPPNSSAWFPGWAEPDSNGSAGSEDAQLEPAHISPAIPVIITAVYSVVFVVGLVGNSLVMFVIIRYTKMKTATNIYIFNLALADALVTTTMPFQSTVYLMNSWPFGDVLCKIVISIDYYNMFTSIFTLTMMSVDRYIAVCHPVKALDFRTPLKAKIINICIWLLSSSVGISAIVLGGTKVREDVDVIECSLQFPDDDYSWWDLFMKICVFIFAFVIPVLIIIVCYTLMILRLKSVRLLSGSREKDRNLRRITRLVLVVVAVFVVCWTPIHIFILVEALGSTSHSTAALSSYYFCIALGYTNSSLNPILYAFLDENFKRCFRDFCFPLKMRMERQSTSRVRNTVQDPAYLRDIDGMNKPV
T6 sequence (P41143 whole entry): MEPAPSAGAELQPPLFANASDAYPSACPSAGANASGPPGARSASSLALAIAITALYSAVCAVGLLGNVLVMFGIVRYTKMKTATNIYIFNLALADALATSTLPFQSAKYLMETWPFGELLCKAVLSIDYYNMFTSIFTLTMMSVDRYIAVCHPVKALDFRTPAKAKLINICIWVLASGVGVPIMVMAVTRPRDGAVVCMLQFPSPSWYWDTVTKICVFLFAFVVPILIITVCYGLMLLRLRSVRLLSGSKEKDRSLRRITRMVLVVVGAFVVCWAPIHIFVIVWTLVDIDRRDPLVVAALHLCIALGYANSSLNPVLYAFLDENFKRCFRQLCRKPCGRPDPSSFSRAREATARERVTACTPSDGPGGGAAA
T1 sequence (P34972 whole entry): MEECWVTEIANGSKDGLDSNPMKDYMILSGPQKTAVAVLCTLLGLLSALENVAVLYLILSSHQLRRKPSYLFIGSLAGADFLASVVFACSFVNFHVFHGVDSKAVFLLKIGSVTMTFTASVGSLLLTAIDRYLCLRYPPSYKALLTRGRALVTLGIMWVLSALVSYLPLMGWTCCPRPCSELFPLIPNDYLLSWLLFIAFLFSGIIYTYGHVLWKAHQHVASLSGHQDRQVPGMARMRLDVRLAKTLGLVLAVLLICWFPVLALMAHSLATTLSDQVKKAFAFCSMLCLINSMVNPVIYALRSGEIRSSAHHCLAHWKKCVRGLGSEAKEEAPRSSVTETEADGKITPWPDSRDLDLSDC
T2 sequence (P21554 whole entry): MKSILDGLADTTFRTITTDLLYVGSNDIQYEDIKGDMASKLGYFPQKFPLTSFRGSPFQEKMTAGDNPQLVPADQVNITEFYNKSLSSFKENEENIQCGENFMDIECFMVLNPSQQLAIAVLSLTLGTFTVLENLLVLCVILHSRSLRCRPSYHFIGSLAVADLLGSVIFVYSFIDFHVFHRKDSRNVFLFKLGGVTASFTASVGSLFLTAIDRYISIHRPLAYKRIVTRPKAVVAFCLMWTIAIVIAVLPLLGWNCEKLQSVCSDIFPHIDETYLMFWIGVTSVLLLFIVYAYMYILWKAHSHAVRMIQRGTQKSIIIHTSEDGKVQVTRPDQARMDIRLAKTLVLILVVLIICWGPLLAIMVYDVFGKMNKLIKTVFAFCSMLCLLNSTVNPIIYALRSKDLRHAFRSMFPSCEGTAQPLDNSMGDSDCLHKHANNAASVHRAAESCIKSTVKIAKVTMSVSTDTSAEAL
T3 sequence (Q9HC97 whole entry): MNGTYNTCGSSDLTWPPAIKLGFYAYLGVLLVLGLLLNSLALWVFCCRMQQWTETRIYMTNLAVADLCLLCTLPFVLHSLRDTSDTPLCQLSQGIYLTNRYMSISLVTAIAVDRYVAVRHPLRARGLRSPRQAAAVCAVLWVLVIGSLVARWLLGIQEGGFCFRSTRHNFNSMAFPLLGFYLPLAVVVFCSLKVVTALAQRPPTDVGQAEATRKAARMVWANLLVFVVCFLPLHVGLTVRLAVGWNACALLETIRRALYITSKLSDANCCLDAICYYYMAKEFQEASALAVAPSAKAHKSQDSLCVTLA
T5 sequence (P35372 whole entry): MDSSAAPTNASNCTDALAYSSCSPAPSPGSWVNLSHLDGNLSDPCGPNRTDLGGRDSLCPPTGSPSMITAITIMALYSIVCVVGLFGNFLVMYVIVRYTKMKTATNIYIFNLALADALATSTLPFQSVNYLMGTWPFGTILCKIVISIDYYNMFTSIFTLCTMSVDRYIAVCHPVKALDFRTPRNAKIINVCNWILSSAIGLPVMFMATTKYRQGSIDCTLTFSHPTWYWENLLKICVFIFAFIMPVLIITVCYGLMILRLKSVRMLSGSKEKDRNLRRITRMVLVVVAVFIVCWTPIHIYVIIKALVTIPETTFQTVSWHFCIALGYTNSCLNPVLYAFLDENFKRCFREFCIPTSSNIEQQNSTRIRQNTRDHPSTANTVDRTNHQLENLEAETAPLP
T7 sequence (Q8VNN2 whole entry): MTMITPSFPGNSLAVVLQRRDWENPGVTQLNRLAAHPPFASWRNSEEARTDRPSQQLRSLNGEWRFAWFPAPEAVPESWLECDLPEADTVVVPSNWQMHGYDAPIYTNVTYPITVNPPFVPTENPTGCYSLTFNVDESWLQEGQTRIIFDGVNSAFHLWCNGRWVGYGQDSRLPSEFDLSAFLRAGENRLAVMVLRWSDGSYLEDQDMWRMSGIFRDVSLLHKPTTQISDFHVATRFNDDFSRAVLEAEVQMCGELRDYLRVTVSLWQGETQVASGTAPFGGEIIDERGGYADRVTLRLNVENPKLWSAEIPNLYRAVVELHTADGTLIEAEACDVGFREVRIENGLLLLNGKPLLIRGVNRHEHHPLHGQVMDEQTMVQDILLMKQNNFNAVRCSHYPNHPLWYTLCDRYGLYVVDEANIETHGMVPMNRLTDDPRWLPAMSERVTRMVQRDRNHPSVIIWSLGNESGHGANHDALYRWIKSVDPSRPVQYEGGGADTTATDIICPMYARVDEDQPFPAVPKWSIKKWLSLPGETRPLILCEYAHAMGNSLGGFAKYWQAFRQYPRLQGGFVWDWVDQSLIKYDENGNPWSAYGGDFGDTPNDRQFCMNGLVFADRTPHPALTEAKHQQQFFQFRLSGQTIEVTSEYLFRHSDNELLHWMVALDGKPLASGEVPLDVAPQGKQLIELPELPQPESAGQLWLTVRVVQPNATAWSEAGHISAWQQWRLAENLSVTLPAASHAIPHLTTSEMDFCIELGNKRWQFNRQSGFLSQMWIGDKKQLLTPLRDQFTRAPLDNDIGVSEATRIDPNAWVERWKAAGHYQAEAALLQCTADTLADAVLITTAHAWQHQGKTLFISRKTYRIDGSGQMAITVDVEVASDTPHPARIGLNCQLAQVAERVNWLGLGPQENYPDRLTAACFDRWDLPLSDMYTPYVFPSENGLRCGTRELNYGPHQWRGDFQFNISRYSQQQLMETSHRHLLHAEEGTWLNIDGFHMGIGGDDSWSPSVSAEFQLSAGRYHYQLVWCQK
Chain of Sphingosine 1-phosphate receptor 4 (O95977 whole entry): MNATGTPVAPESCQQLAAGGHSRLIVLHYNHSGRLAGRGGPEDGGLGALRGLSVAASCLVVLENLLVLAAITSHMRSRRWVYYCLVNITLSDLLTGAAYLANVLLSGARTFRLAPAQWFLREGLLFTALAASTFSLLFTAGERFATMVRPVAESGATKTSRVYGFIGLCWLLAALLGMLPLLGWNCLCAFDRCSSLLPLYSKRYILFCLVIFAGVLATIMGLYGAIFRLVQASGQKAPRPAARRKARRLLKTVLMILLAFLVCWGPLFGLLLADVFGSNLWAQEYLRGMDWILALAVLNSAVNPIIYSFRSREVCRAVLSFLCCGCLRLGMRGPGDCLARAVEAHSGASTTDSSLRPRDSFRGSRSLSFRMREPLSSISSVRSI
Chain of E3 ubiquitin-protein ligase Mdm2/Protein Mdm4 (Q00987 whole entry): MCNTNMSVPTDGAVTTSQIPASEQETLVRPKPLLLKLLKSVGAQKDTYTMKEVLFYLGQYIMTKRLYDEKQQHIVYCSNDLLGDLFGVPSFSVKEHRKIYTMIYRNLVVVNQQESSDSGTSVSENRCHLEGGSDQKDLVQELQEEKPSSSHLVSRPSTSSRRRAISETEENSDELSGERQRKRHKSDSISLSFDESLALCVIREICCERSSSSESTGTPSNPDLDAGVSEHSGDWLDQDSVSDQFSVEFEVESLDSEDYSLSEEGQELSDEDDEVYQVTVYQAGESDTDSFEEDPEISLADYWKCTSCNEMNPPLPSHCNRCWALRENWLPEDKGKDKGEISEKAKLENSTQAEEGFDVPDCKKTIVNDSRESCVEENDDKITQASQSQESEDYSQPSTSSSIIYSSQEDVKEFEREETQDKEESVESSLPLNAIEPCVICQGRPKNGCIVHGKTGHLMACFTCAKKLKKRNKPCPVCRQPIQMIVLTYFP
Chain of E3 ubiquitin-protein ligase Mdm2/Protein Mdm4 (O15151 whole entry): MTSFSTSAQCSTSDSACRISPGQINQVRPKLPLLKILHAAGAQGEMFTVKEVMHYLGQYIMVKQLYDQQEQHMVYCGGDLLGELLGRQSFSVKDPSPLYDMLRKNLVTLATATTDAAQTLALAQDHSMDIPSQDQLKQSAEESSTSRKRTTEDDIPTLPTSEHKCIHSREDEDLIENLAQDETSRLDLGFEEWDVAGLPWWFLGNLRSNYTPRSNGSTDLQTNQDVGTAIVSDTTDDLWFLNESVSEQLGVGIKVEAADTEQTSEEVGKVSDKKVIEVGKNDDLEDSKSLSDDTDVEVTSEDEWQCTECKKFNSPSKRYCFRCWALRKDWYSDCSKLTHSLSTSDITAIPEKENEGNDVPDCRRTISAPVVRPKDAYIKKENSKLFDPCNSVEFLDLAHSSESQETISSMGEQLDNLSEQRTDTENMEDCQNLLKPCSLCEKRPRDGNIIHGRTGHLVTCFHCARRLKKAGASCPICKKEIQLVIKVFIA

SMILES: COc1ccc(S(=O)(=O)N2CCOCC2)cc1NC(=O)c1ccc(Cl)cc1
- IC50 (Cannabinoid receptor 2 [1]): > 32 µM (inactive)
- IC50 (Cannabinoid receptor 1 [2]): > 32 µM (inactive)
- IC50 [3]: 12.3 µM (inactive)
- EC50 (Cannabinoid receptor 1 [4]): 5.08 µM (active)
- EC50 (Cannabinoid receptor 2 [5]): > 32 µM (inactive)
- EC50 [6]: > 32 µM (inactive)
- EC50 [7]: 0.138 µM (active)

SMILES: Cc1ccc(O)c(CCc2ccccc2)n1
- EC50 (T-cell): 9.49 µM (active)

SMILES: Cc1ccc(OCCOc2cccc(Br)c2)c([N+](=O)[O-])n1
- EC50 [8]: 27.6 µM (active)
- EC50 [9]: 5.57 µM (active)
- EC50 [10]: > 50 µM (inactive)

SMILES: CC(C)N(CCNC(=O)c1ccc(CNS(=O)(=O)c2ccc3ccccc3c2)cc1)Cc1ccccc1
- IC50 [11]: 5.52 µM (active)
- IC50 (Mu-type opioid receptor [12]): > 32 µM (inactive)
- IC50 [13]: 0.16 µM (active)
- IC50 [14]: 31.3 µM (inactive)
- IC50 [15]: 2.33 µM (active)

SMILES: O=C(C1CCCCN1Cc1ccccc1)N1CCN(c2ccc([N+](=O)[O-])cc2)CC1 (stereo not drawn)
- IC50 [16]: 11.3 µM (inactive)

SMILES: O=[N+]([O-])c1ccccc1S(=O)(=O)Nc1cccc2cccnc12
- EC50 [17]: 14.1 µM (active)
- CC50 (Vero [18]): 8.6 µM (active)
- EC50 (Mu-type opioid receptor [19]): > 32 µM (inactive)
- IC50 [20]: 7.84 µM (active)
- EC50 [21]: > 32 µM (inactive)
- IC50 [22]: > 32 µM (inactive)
- EC50 [23]: 11.6 µM (active)
- EC50 (Beta-galactosidase [24]): > 31.5 µM (inactive)
- IC50 [25]: > 32 µM
- IC50 [26]: 3.73 µM (active)
- EC50 [27]: > 120 µM (not active)

SMILES: Cc1cc(C)nc(N/N=C/C2=C(O)CC(c3ccc(F)cc3)CC2=O)n1 (stereo not drawn)
- CC50 (Vero [28]): > 25 µM (active)
- EC50 (cells [29]): 15.9 µM (active)
- EC50 (cells [30]): > 350 µM (not active)
- IC50 (Beta-galactosidase [31]): > 66.6 µM (inactive)
- IC50 [32]: > 66.6 µM (inactive)
